Columns and labels:
[1] = tested on: DHODH deficient Pf Dd2 mutant; test: P. falciparum (Dd2 strain) asexual blood stage assay, DHODH deficient mutant; assay type: cell-based, Plasmodium falciparum; details: for IC50: Plasmodium falciparum, DD2, 72 h, read-out: DHODH deficient Pf Dd2 mutant IC50 (uM)
Protocol: (§1) Assays using human blood cells infected with Plasmodium falciparum: (Pf) parasites, both wild-type strains as well as mutant drug-resistant strains, were performed as described below. Wild-type strains used were aatB Pf (Dd2 strain) and Pf (Dd2 strain). Mutant strains used were proguanil resistant attb Pf (Dd2 strain), dihydroorotate dehydrogenase (DHODH) deficient aatB Pf (Dd2 strain), and DHODH deficient and proguanil resistant Pf (Dd2 strain).
(§2) 2008 Jul. 1; 105(26):9059-64.
(§3) Parasitemia was estimated by blood smear Giemsa stain and visual inspection under the microscopic.
(§4) The screening plate was prepared by centrifuging for parasite culture for 5 min at 800×g at RT (low brake) and removing supernatant. A parasite suspension was prepared with 0.3% parasitemia and 4% hematocrit in screening medium (SM). The suspension was gassed with a gas mixture of 1% oxygen, 3% carbon dioxide, 96% nitrogen and stored at 37° C. for until ready to use. 50 nl of 1 mM compound in DMSO was prespotted into 1536 well plates (final drug conc. of 12.5 μM, final DMSO conc. of 0.625%) with the acoustic dispenser ATS. Controls were Artemisinin, Chloroquine, and DMSO. 8 μl of SM was dispensed into 1,536-well, black, clear-bottom plates (Greiner) using the MultiFlo™ Microplate dispenser (BioTek) (final parasitemia of 0.3% and 2.5% hematocrit in SM). The plates were incubated at 37° C. for 72 h with water-soaked tissue in a closed ziploc bag gassed with 1% oxygen, 3% carbon dioxide, 96% nitrogen.
(§5) 2 μl of detection reagent mixture (10×SYBR Green I (Invitrogen) in Lysis buffer (20 mM Tris/HCl, 5 mM EDTA, 0.16% Saponin wt/vol, 1.6% Triton X vol/vol) was added. Assay plates were read from the bottom by using the 2104 EnVision® Multilabel Reader (PerkinElmer) (485 nm excitation, 530 nm emission). The results are presented in Table 5 below.

[2] = tested on: Proguanil resistant attB Pf Dd2; test: P. falciparum (Dd2 strain) asexual blood stage assay, proguanil resistant attB; assay type: cell-based, Plasmodium falciparum; details: for IC50: Plasmodium falciparum, DD2, 72 h, read-out: Proguanil resistant attB Pf Dd2 IC50 (uM)
Protocol: as §1, §2, §3, §4, §5

[3] = tested on: HepG2-A16-CD81EGFP cells; test: HepG2 cytotoxicity bioluminescence assay (CellTiter-Glo); assay type: cell-based, human; details: for concentration below which no toxicity was seen: HepG2-A16-CD81EGFP, 48 h, CellTiter-Glo
Protocol: Compounds 66 and 177 were tested for viability of liver schizonts of the murine Plasmodium berghei species transformed with Luciferase by using the following assay adapted and modified from S. Swann et al. (2016) High-Throughput Luciferase-Based Assay for the Discovery of Therapeutics That Prevent Malaria. ACS Infectious Diseases 2: 4. 281-293 (2016), but with the removal of the infection methods. The CellTiter-Glo® ° (Promega Corp., Madison WI) is a method to determine the number of viable cells in culture based on quantitation of the ATP present, which signals the presence of metabolically active cells.
HepG2-A16-CD81EGFP cells were stably transformed to express a GFP-CD81 fusion protein (S. Yalaoui et al., Hepatocyte permissiveness to Plasmodium infection is conveyed by a short and structurally conserved region of the CD81 large extracellular domain. PLoS Pathog. 4, e1000010 (2008); O. Silvie et al, Hepatocyte CD81 is required for Plasmodium falciparum and Plasmodium yoelii sporozoite infectivity. Nat. Med. 9, 93 (2003)). The transformed HepG2-A16-CD81EGFP cells were cultured at 37° C. in 5% CO2 in DMEM (Invitrogen, Carlsbad, USA) supplemented with 10% FCS, 0.29 mg/ml glutamine, 100 units penicillin and 100 μg/ml streptomycin.
[…] HepG2-A16-CD81EGFP cells in 5 μl of medium (2×10^5 cells/ml, 5% FBS, 5× Pen/Strep/Glu) were seeded in 1536-well plates (Greiner BioOne white solid bottom custom GNF mold) 20-26 hours prior to the actual infection. 24 hours prior to infection, 50 nl of compound in DMSO (0.5% final DMSO concentration per well) was transferred with acoustic transfer machine (ATS) into the assay plates (10 μM-50 μM final concentration). Puromycin (25 μM) and 0.5% DMSO were used as positive and negative controls, respectively.
5 μl of the HepG2 screening media were dispensed into each well of the 1536 plate format using the BioTek MultiFlo FX Multi-Mode Cell Dispenser and a 5 μl BioTek Liquid Handling MicroFlo cassette. This step was to maintain equal concentrations of compounds with the Pb-Luc infected plates that were performed in parallel with this assay (P. berghei-Luciferase Liver Stage Bioluminescence Assay). After incubation at 37° C. for 48 hours, the cell viability was quantified by bioluminescence measurement. […] Puromycin and naive wells were used as controls on each plate. The compounds were screened in a 12 point serial dilution to determine their IC50 values.
Media was removed by spinning the inverted plates at 150 RCF for 1 minute. CellTiter-Glo® reagent (Promega Corp., Madison WI) was prepared following manufacturer instructions and diluted with DI H2O 1:1 (final solution is 50% CellTiterGlo® reagent in DI H2O). […] Immediately after addition of the CellTiter-Glo® reagent, the plates were read by the Envision Multilabel Reader (PerkinElmer).

SMILES	IC50 [1]	IC50 [2]	cell-based toxicity, in words [3]	concentration below which no toxicity was seen [3]	potency against a dihydroorotate dehydrogenase (DHODH) deficient mutant ([1]; in words)	potency against a proguanil resistant attB mutant strain ([2]; in words)
O=C(Nc1ccc(F)c(F)c1)c1c2c(nc3ccccc13)CCN(Cc1ccccc1)C2 [Compound 66, 2-Benzyl-N-(3,4-difluorophenyl)-1,2,3,4-tetrahydrobenzo[b][1,6]naphthyridine-10-carboxamide]	0.0301 µM	0.0699 µM	acceptable levels of cell-based toxicity	≥ 50 µM		
O=C1c2c3c(nc4ccccc24)CCN(Cc2ccccc2)C3N1c1ccc(F)c(F)c1 (stereo not shown) [Compound 177, 3-Benzyl-2-(3,4-difluorophenyl)-2a,3,4,5-tetrahydrobenzo[b]pyrrolo[4,3,2-de][1,6]naphthyridin-1(2H)-one]	0.006 µM	0.0113 µM	acceptable levels of cell-based toxicity	≥ 12.5 µM	undiminished potency	undiminished potency
